We go through five compounds from patent publication US5629298A, “Adenosine as a positive inotrop in the compromised heart” (University of Massachusetts Medical Center, priority 1995, dated 1997).

The test system of experiment [1] is ventricular myocyte membrane adenylyl cyclase. Description: Adenylyl cyclase activity of ventricular myocyte membranes. It is filed as biochemical, rat. On the procedure: After a 3-4 hour incubation period, myocytes were harvested by placing the culture dishes on ice; aspirating and discarding the culture medium; scraping the attached cells into 1 ml of ice cold buffer (pH 7.4) containing 10 mM HEPES and 1 mM dithiothreitol (DTT); and transferring the mixture to a 40 ml centrifuge tube. The culture dishes were rinsed twice with buffer, and the rinses were added to the centrifuge tube. The myocytes were centrifuged at 45,000 x g for 45 minutes and the supernatant was discarded. The pellet was resuspended in 40 mM HEPES (pH 7.4) to yield 3.5-4 mg protein/ml and homogenized with a small clearance Dounce tissue grinder (8 strokes). The membranes were centrifugated as described above, resuspended (3-4 mg protein/ml) in 40 mM HEPES (pH 7.4), and assayed for adenylyl cyclase activity immediately or stored at -80° C. and assayed within 10 days.
The assay system used to measure adenylyl cyclase activity minimizes the formation of endogenous adenosine. The assay used was essentially as described by Romano et al. (supra). Myocyte membranes (15-25 μg protein) were incubated in 50 μl of a buffer containing 40 mM HEPES (pH 7.4), 5 mM MgCl2, 1 mM DTT, 5.5 mM KCl, 0.1 mM 2'-deoxy-cAMP (dcAMP), 0.1 mM 2'-deoxy ATP (dATP), 20 mM phosphoenolpyruvate, 2 units pyruvate kinase, 0.25 units adenosine deaminase, 1 mM ascorbic acid, 100 mM NaCl, 0.1 mM ethyleneglycol-bis (β-aminoethylether) N,N,N',N',-tetroaceticacid (EGTA), 10 μM guanosine 5'-triphosphate (GTP), and ~2×10^6 counts/minutes of [α-^32 P]dATP for 20 minutes at 30° C. The reaction was stopped by adding 40 μl of a solution containing 2% sodium dodecyl sulfate (SDS), 45 mM ATP, 1.3 mM cAMP, and [^3 H]dcAMP (~4000 count/min) and by boiling for 2 minutes.

In a further experiment the test system is rat ventricular myocytes. Description: Contractile function of individual ventricular myocytes (line scan camera edge detection, paced at 0.5 Hz). The class given is cell-based. Particulars: for activation at 10 µM / inhibition at 2 µM: Rattus norvegicus, Ventricular myocyte; for +dL/dtmax, maximal rate of shortening / -dL/dtmax, maximal rate of relaxation / DS, duration of shortening / LC, maximum length change (shortening) with contraction / TPS, time-to-peak shortening / TR, time to 75% relaxation: mean ± SE, N = 6; for inhibition at 2 µM: PIA at 2 μM, ISO 0.2 μM. On the procedure:
Primary cultures of adult rat ventricular myocytes were prepared essentially according to previously described methods (Romano et al., Am. J. Physiol. 257:H1088 (1989)). Two male Sprague-Dawley rats (Charles River, Wilmington, Mass. or Harlan, Indianapolis, Ind.) were decapitated, and the hearts were rapidly excised and constant pressure (70 cm H2) and nonrecirculated) perfused for 10 minutes through the aortas with filtered (0.45 μm membrane filter) perfusing solution (NaCl, 118 mM; glucose, 10 mM; NaHCO3 25 mM; KCl, 4.69 mM; MgSO4 1.18 mM; and KH2 PO4, 1.18 mM; (pH 7.4)), to which […] was added, at 37° C. After equilibration, the hearts were constant pressure perfused with fresh physiological saline ("PS") containing no added Ca^2+ until spontaneous contractions ceased (i.e., ~30 seconds). The hearts were then perfused for 4-10 minutes in a nonrecirculating manner with PS containing 0.73 mg/ml collagenase, 0.16 mg/ml hyaluronidase, 1 mg/ml recrystallized bovine serum albumin ("BSA") and 48.4 μM Ca^2+ at a rate of 3-4 ml/min/heart. Ventricles, free of atria, were removed from the perfusion system, cut into 8 pieces and placed in a 50 ml Erlenmeyer flask with 5 ml of PS containing 0.73 mg/ml collagenase, 0.16 mg/ml hyaluronidase, 2.5 mg/ml BSA, and 50 μM Ca^2+ (incubation solution). The flask was gently shaken (40 cycles/min) in a reciprocating water bath with continuous gassing (95% O2, 5% CO2) for 7 minutes at 37° C. The incubation solution was aspirated and this shaking procedure was repeated with fresh incubation solution 3-5 times depending on the likelihood that the tissue was ready to dissociate. After the final incubation period, the solution was aspirated and replaced with 10 ml of fresh incubation solution. The flask was then shaken rapidly (120 cycles/min) for 10 minutes with gassing to dissociate the myocytes. The flask contents were filtered through a 250 μm nylon mesh into a 50 ml polypropylene centrifuge tube, to which 40 ml of PS containing 5.95 mg/ml BSA and 99.7 μm Ca^2+ (wash solution) was gradually added.
The myocytes were allowed to settle for 15 minutes, and the upper two thirds of the wash solution was aspirated. Upon the addition of 30-35 ml of wash solution, this settling step was repeated. The wash solution was aspirated and the myocyte pellet was resuspended in 10 ml of minimum essential medium ("MEM"). The myocyte suspension was allowed to settle for 5 minutes and then brought to a final volume of 22 ml with MEM. Two milliliters of the myocyte suspension was seeded onto each of 60 mm culture dishes containing 2 ml of MEM.
The contractile function of individual myocytes was assessed by dispersing 50-100 cells in a 506 μl myocyte chamber (11×23×2 mm deep). The chamber (FIG. 1) was continuously suffused (850 μl/min) with fresh suffusion solution ("SS") in mM: 136.4 NaCl, 4.7 KCl, 1.0 CaCl2, 10 hydroxyethylpiperzine-ethanesulfonicacid (HEPES), 1.0 NaHCO3, 1.2 MgSO4, 1.2 KH2 PO4, 10 glucose, 0.6 ascorbate, 1.0 pyruvate) at 20° C. The chamber was mounted on an inverted microscope stage and contained platinum wire electrodes for initiating myocyte contraction at 0.5 Hz (voltage 10% above threshold for 5 msec duration).
The image of the myocyte was projected via an inverted microscope at 300× onto a line scan camera (Fairchild, Model 1600R) containing a linear array (1×3456) of photodiodes. When aligned with the longitudinal axis of the cell the camera detected the movement of the 2 ends of the myocyte upon contraction (shortening and relengthening). […] When the myocyte was transilluminated, both ends of the cell were easily discriminated. Myocyte length and length change with respect to time for a single contraction was measured by determining the pixels in which the appropriate transitions between light and dark occurred. The line scan camera was calibrated with a stage micrometer scaled in 10 μm divisions. The signals from the camera were directed to a Hewlett Packard computer (Model Vectra RS/20C). […]

The next experiment has as its system rat heart. Nature of the experiment: Isolated perfused heart, normoperfused or hypoperfused (mechanically depressed): LVP, +dP/dtmax, -dP/dtmax. Particulars: atenolol; hypoperfusion. On the procedure:
Male Sprague-Dawley rats (500-550 g) were anesthetized with pentobarbital (40 mg/kg, i.p.) and treated with heparin (500 units, i.p.) for 15 minutes. Hearts were excised, rinsed in iced physiological saline ("PS") and perfused with PS (37° C.) via an aortic cannula at a constant rate of 18-20 ml/min. Perfusion pressure ranged from 50 to 60 mm Hg. The PS contained: NaCl, 118 mM; KCl, 4.7 mM; CaCl2, 2.5 mM; NaHCO3, 25 mM; KH2 PO4, 1.2 mM; MgSO4 1.2 mM; glucose 10 mM; and pyruvate 1.8 mM. The pH was maintained at 7.4 by gassing the PS with a 95% O2 /5% CO2 gas mixture. Platinum wire electrodes were inserted into the right atrium to allow pacing of the heart (300 contractions per minute) throughout the perfusion period. Developed left ventricular pressure (LVP) was measured with a saline-filled balloon inserted into the lumen of the left ventricle via the left atrium and attached by a polyethylene cannula to a pressure transducer. The pressure signal was electronically differentiated to obtain the maximum rates of left ventricular pressure development (+dP/dtmax) and relaxation (-dP/dtmax). Balloon volume was varied until the maximal obtainable dP/dt was attained. This optimal preload, ranging from 5 to 10 mm Hg, was maintained constant, permitting isovolumic contraction of the heart. Aortic perfusion pressure was monitored with another pressure transducer. All the LVP, +dP/dtmax, -dP/dtmax and aortic perfusion data were continually recorded on a multichannel polygraph. At the end of the experiment, the wet heart weights were determined; they ranged from 1.4 to 1.8 g.
After instrumentation, the hearts were normoperfused at 18-20 ml/min for 20 minutes, resulting in an aortic perfusion pressure of 50-60 mm Hg. Isoproterenol, adenosine, CGS-21680, DPCPX, atenolol, or a combination of these agents was administered for 1 to 2 minutes, via the aortic perfusion cannula, at 1/100th the perfusion flow rate, to achieve the stated PS concentrations. Isoproterenol was administered for only 5 seconds. To cause mechanical depression of the perfused hearts, the perfusion flow was lowered 5-6 ml/min. The resulting aortic perfusion pressure decreased to 20-30 mm Hg. The various agents either alone or in combination were administered via the PS to the hypoperfused hearts at 1/100th the perfusion flow rate, at the concentrations indicated.

[2] abbreviates: Table 6, 10^-5 M SHA-082, 10^-5 M NECA, 10^-4 M adenosine, 2 × 10^-7 M DPCPX, 10^-5 M CGS-15943.
The mark [3] stands for this setting: Table 3, 1 μM PIA, 0.1 μM ISO, 0.1 μM DPCPX added sequentially every 8-10 min, maximum responses.
[4] abbreviates: Table 5, CGS-21680 and/or CGS-15943 at 10^-5 M, 10 min.

Read-outs that look alike come from different tables or passages of the source.

By EC50 is commonly meant the concentration at which the effect is half-maximal. Turning to `CCNC(=O)[C@H]1O[C@@H](n2cnc3c(N)ncnc32)[C@H](O)[C@@H]1O` [NECA, N-ethylcarboxamidoadenosine], in experiment [1] (NECA 0 to 1 mM (FIG. 10)), the “increase in adenylyl cyclase activity” value is on record as “approximately two-fold”. For the same compound, the concentration for a half-maximal effect (EC50) in experiment [1] (without DPCPX, read-out: EC50 for activation of cyclase) is 17 ± 5.7 µM. In the experiment on rat ventricular myocytes (read-out: increase in DS), the activation at 10 µM was determined as 21%. In the experiment with rat ventricular myocytes (read-out: increase in LC), the activation at 10 µM was determined as 24%. In addition, in the experiment on rat ventricular myocytes (read-out: increase in TPS), the activation at 10 µM was 20%. The activation at 10 µM in the experiment on rat ventricular myocytes (read-out: increase in TR) was 28%. Also, in the experiment on rat ventricular myocytes (setting [2]), the “+dL/dtmax, maximal rate of shortening” value turned out to be 203 ± 9 μm/msec; the “-dL/dtmax, maximal rate of relaxation” value amounted to 149 ± 12 μm/msec; the “DS, duration of shortening” value is 350 ± 15 ms; the “LC, maximum length change (shortening) with contraction” value (“LC, maximum length change (shortening)” for short) came out at 21 ± 2 μm. Further, in the experiment on rat ventricular myocytes (setting [2]), the “TPS, time-to-peak shortening” value came out at 140 ± 5 ms and the “TR, time to 75% relaxation” value is 340 ± 12 ms. Moreover, the “contractile responses in the presence of 10 μM CGS-15943” value in the experiment with rat ventricular myocytes (agonist at 10 μM) was “not observed”.

For the compound `CC(Cc1ccccc1)Nc1ncnc2c1ncn2[C@@H]1O[C@H](CO)[C@@H](O)[C@H]1O` (stereo partly drawn) [PIA, phenylisopropyladenosine], the “effect on ventricular myocyte contractile variables” value with rat ventricular myocytes (PIA at 1 μM alone) is given as “no effect”. For the same compound, the inhibition at 2 µM with rat ventricular myocytes (read-out: reduction of the ISO-induced decrease in DS) was 47%. In addition, the inhibition at 2 µM in the experiment with rat ventricular myocytes (read-out: reduction of the ISO-induced decrease in TPS) turned out to be 82%. The inhibition at 2 µM in the experiment with rat ventricular myocytes (read-out: reduction of the ISO-induced decrease in TR) is 37%. Further, the inhibition at 2 µM with rat ventricular myocytes (read-out: reduction of the ISO-induced increase in +dL/dtmax) is 60%. Further, the inhibition at 2 µM in the experiment with rat ventricular myocytes (read-out: reduction of the ISO-induced increase in -dL/dtmax) was 78%. Further, in the experiment on rat ventricular myocytes (read-out: reduction of the ISO-induced increase in LC), the inhibition at 2 µM was 91%. Also, in the experiment with rat ventricular myocytes (setting [3]), the “+dL/dtmax, maximal rate of shortening” value is given as 115 ± 17 μm/msec; the “-dL/dtmax, maximal rate of relaxation” value stood at 85 ± 21 μm/msec; the “DS, duration of shortening” value turned out to be 374 ± 23 ms; the “LC, maximum length change (shortening)” value is recorded as 16 ± 2 μm. Further, in the experiment on rat ventricular myocytes (setting [3]), the “TPS, time-to-peak shortening” value came to 153 ± 5 ms and the “TR, time to 75% relaxation” value came out at 308 ± 8 ms.

For the compound `N=c1[nH]c2ccc(Cl)cc2c2nc(-c3ccco3)nn12` [CGS-15943, 9-chloro-2-(2-furanyl)-5,6-dihydro-1,2,4-triazolo-(1,5-C)quinazolin-5-imine], in experiment [1] (10 μM CGS-15943, 0.1 μM DPCPX present), the “effect on the CGS-21680 increase in cyclase activity” value was “prevented”. Besides, the “effect on the NECA increase in membrane cyclase activity” value in experiment [1] (CGS-15943 at 10 μM, both in the absence and presence of DPCPX) is “prevented”. The “effect on the adenosine induced increases in contractile variables” value with rat ventricular myocytes (10 μM CGS-15943, 100 μM adenosine + 0.2 μM DPCPX) is “inhibited”. Moreover, in the experiment with rat ventricular myocytes (CGS-15943 (10 μm), CGS-21680 (10 μm)), the “effect on the increase in myocyte contractility produced by CGS-21680” value is listed as “prevented”. For the same compound, in the experiment with rat ventricular myocytes (setting [4]), the “+dL/dtmax, maximal rate of shortening” value is on record as 146 ± 10 μm/msec; the “-dL/dtmax, maximal rate of relaxation” value is given as 123 ± 11 μm/msec; the “DS, duration of shortening” value came out at 331 ± 15 ms; the “LC, maximum length change (shortening)” value turned out to be 18 ± 2 μm. Moreover, in the experiment on rat ventricular myocytes (setting [4]), the “TPS, time-to-peak shortening” value amounted to 122 ± 3 ms and the “TR, time to 75% relaxation” value is 285 ± 10 ms.

In the case of `Cn1c(=O)c2c(nc(C=Cc3cccc(Cl)c3)n2C)n(C)c1=O` [CSC, 8-(3-chlorostyryl)caffeine], the “effect on the increase in the contractile variables elicited by 1 μM CGS-21680” value in the experiment with rat ventricular myocytes (CSC at 1 μM, in the presence of 0.2 μM DPCPX) is “prevented”.

Regarding `CC(C)NCC(O)COc1ccc(CC(N)=O)cc1` (stereo not drawn) [atenolol], in the experiment with rat heart, the “effect on the inotropic responses induced by adenosine or adenosine plus DPCPX” value is listed as “did not affect” and the “effect on the isoproterenol elicited contractile responses” value is on record as “completely prevented”.
